Measurements published in patent publication US8410094B2, “Amide compounds, their pharmaceutical compositions, their preparation method and their uses” (Shanghai Institute of Materia Medica, Chinese Academy of …, priority 2008, dated 2013).

Biological target: T1, CCR5 (Homo sapiens, UniProt P51681)
T1 construct: expressed in transfected cells
Assay: Inhibition of CCR5: [35S]GTPγS binding assays (filtration, SPA-WGA) and calcium influx assay, 10 nM RANTES, CHO-CCR5
Format: biochemical
Settings: for inhibition at 0.03 µM: compound at 30 nM, read-out: inhibition against CCR5 @30 nM; for inhibition at 0.03 µM / inhibition at 0.3 µM: 10 nM RANTES; for inhibition at 0.3 µM: compound at 300 nM, read-out: inhibition against CCR5 @300 nM; for IC50: inhibition of GTPγS binding induced by 10 nM RANTES, CHO-CCR5
Procedure: CCR5 belongs to G-Protein-Coupled Receptor (GPCR) family. The developing technology of GPCR-based drugs have been well-developed, among them, the experimental techniques such as ligand-receptor binding assay, GTPγS binding assay and Ca^2+ flux assay have been widely used in drug-screening related to chemokine receptors. The inhibitory activities of the compounds according to the present invention against CCR5 are measured by three methods, i.e., [^35S]GTPγS filter binding assay, SPA-WGA-based [^35S]GTPγS binding assay and calcium influx assay. At the same time, the antiviral activities in cell of the compounds according to the present invention are evaluated by using two kinds HIV-1 subtypes: H4DA5 cell model and PBMC system virus replication model.
A. [^35S]GTPγS Binding Assay
After binding with an agonist, CCR5 experiences a conformation change such that CCR5 interacts with G protein so as to active the G protein. G protein is a tripolymer composed of α-subunit and βγ-subunit. Since the ability of α-subunit binding to GTP depends on the interaction of CCR5 with the agonist, the ability of an agonist for activating CCR5 can be reflected by determining the amount of GTP binding to α-subunit. In a GTPγS binding assay, a ^35S-labeled GTP analogue GTPγS, which can bind with an activated α-subunit without being hydrolyzed, is used to replace GTP in order for eliminating the defect that the amount of GTP binding to G protein can not exactly reflect the activation of CCR5 due to the hydrolysis of GTO by GTPase and for convenience of detection. So, α-subunit binds with GDP when CCR5 is not activated, and after the activation of CCR5, α-subunit binds with GTPγS such that GTPγS irreversible binds to α-subunit. Therefore, the amount of [^35S]-GTPγS binding to α-subunit could reflect the level of CCR5 activated by an agonist. The ability of the agonist for activating CCR5 will decrease when an antagonist is added.
Such experiment has been referred to as GTPγS filtration assay in which [^35S]-GTPγS bound with the free G protein could be separated by membrane filtration.
Alternatively, SPA (Scintillation Proximity Assay) technique can be used to detect the [^35S]-GTPγS bound to G protein, which is called SPA-WGA-based [35S]GTPγS binding assay. The principle of SPA technique is as follows. Sub-atomic particles released during the decay of radioactive atoms, for example β-ray (electron), can excite microspheres at a sufficiently close distance to emit light so as to be detected by a Scintillation Counter. In an aqueous solution, most of the energy of these rays is absorbed by the solvent, and the traveling distance of these rays is limited.
The activation of G protein by CCR5 is determined by the following experiments.
CHO (Chinese hamster ovary cell) permanent cell line expressing CCR5 (CHO-CCR5) (a cell line constructed by Shanghai Targetdrug Ltd.) was lysed with a lysis buffer (5 mM Tris-HCl, pH 7.5, 5 mM EDTA and 5 mM EGTA) and then centrifugated at 15,000×g for 10 min to obtain cell membrane. After the cell membrane was resuspended in a reaction buffer (5 mM Tris-HCl, pH 7.5, 5 mM MgCl2, 1 mM EGTA, 100 mM NaCl), the protein concentration was determined using Bioford Protein Assay Kit manufactured by Bio-Rad Laboratories Inc. Subsequently, GTPγS binding assay was performed in the reaction buffer, wherein the reaction system was 100 μL containing 10 μg membrane protein, 40 μM GDP and 0.5 nM [^35S]-GTPγS (1200 Ci/mmol). After the compound to be tested (the compound was first dissolved in DMSO and then diluted in gradient with the reaction buffer according to the specific situation, wherein the final concentration of DMSO was 1% (v/v) in the whole reaction system) was added and shaken to mix homogeneously, the reaction tube was incubated at 30° C. for 1 hour. After the reaction finished, the tube was placed on ice, and the reaction mixture was diluted with PBS to quench the reaction and filtered under reduced pressure with a GF/C filter membrane. […]

T1 sequence (P51681 whole entry): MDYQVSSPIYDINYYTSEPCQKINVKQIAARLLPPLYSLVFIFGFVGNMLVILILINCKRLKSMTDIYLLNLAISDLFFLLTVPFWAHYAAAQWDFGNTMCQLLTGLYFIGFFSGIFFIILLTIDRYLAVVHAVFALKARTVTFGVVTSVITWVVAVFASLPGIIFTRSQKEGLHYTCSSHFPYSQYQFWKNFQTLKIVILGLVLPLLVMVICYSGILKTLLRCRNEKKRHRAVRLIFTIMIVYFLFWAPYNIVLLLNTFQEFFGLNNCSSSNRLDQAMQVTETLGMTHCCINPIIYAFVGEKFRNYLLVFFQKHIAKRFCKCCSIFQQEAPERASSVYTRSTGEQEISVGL

IC50 [nM] | SMILES | inhibition at 0.03 µM [%] | inhibition at 0.3 µM [%] | other results
– | CC(=O)N1CCC(C(=O)N(CCCN2C3CCC2CC(NC(=O)c2cccnc2)C3)c2ccc(C)c(Cl)c2)CC1 (stereo not drawn) [Compound 7t, 1-acetyl-N-(3-chloro-4-methylphenyl)-N-(3-(3-exo-nicotinamido-8-azabicyclo[3.2.1]oct-8-yl)propyl)-4-piperidinylcarboxamide] | 3.36 | 15.6 | –
– | CC(=O)N1CCC(C(=O)N(CCCN2C3CCC2CC(NC(=O)c2ccc(C(F)(F)F)cc2)C3)c2ccc(C)c(Cl)c2)CC1 (stereo not drawn) [Compound 7u, 1-acetyl-N-(3-chloro-4-methylphenyl)-N-(3-(3-exo-p-trifluoromethylbenzoylamido-8-azabicyclo[3.2.1]oct-8-yl)propyl)-4-piperidinylcarboxamide] | 26.5 | 96.3 | –
– | CC(=O)N1CCC(C(=O)N(CCCN2C3CCC2CC(NC(=O)CCc2cccnc2)C3)c2ccc(C)c(Cl)c2)CC1 (stereo not drawn) [Compound 7v, 1-acetyl-N-(3-chloro-4-methylphenyl)-N-(3-(3-exo-(3-(3-pyridyl)propionamido)-8-azabicyclo[3.2.1]oct-8-yl)propyl)-4-piperidinylcarboxamide] | 17.5 | 76.7 | –
18.1 | CC(=O)N1CCC(C(=O)N(CCCN2[C@@H]3CC[C@H]2C[C@H](NC(=O)COc2ccc4ccccc4c2)C3)c2ccc(C)c(Cl)c2)CC1 [Compound 7w, 1-acetyl-N-(3-chloro-4-methylphenyl)-N-(3-(3-exo-(2-(2-naphthoxy)acetamido)-8-azabicyclo[3.2.1]oct-8-yl)propyl)-4-piperidinylcarboxamide] | – | – | –
27.3 | CC(=O)N1CCC(C(=O)N(CCCN2[C@@H]3CC[C@H]2C[C@H](NC(=O)COc2ccc(Cl)cc2)C3)c2ccc(C)c(Cl)c2)CC1 [Compound 7x, 1-acetyl-N-(3-chloro-4-methylphenyl)-N-(3-(3-exo-(2-p-chlorophenoxy)acetamido-8-azabicyclo[3.2.1]oct-8-yl)propyl)-4-piperidinylcarboxamide] | – | – | –
24.6 | CC(=O)N1CCC(C(=O)N(CCCN2[C@@H]3CC[C@H]2C[C@H](NC(=O)COc2ccc(Cl)cc2Cl)C3)c2ccc(C)c(Cl)c2)CC1 [Compound 7y, 1-acetyl-N-(3-chloro-4-methylphenyl)-N-(3-(3-exo-(2-(2,4-dichlorophenoxy)acetamido)-8-azabicyclo[3.2.1]oct-8-yl)propyl)-4-piperidinylcarboxamide] | – | – | –
17.3 | CNS(=O)(=O)c1ccc(CC(=O)N[C@@H]2C[C@H]3CC[C@@H](C2)N3CCCN(C(=O)C2CCN(C(C)=O)CC2)c2ccc(C)c(Cl)c2)cc1 [Compound 7z, 1-acetyl-N-(3-chloro-4-methylphenyl)-N-(3-(3-exo-(2-(4-(N-methylsulphonyl)phenyl)acetamido)-8-azabicyclo[3.2.1]oct-8-yl)propyl)-4-piperidinylcarboxamide] | – | – | –
20.1 | CC(=O)N1CCC(C(=O)N(CCCN2[C@@H]3CC[C@H]2C[C@H](NS(C)(=O)=O)C3)c2ccc(C)c(Cl)c2)CC1 [Compound 9a, 1-acetyl-N-(3-chloro-4-methylphenyl)-N-(3-(3-exo-(methylsulfonyl amido)-8-azabicyclo[3.2.1]oct-8-yl)propyl)-4-piperidinylcarboxamide] | – | – | –
3.3 | CC(=O)N1CCC(C(=O)N(CCCN2[C@@H]3CC[C@H]2C[C@H](NS(=O)(=O)c2ccc([N+](=O)[O-])cc2)C3)c2ccc(C)c(Cl)c2)CC1 [Compound 9c, 1-acetyl-N-(3-chloro-4-methylphenyl)-N-(3-(3-exo-(4-nitrophenylsulfonylamido)-8-azabicyclo[3.2.1]oct-8-yl)propyl)-4-piperidinylcarboxamide] | – | – | –
2.59 | CC(=O)N1CCC(C(=O)N(CCCN2[C@@H]3CC[C@H]2C[C@H](NS(=O)(=O)c2cccc([N+](=O)[O-])c2)C3)c2ccc(C)c(Cl)c2)CC1 [Compound 9d, 1-acetyl-N-(3-chloro-4-methylphenyl)-N-(3-(3-exo-(3-nitrophenylsulfamide)-8-azabicyclo[3.2.1]oct-8-yl)propyl)-4-piperidinylcarboxamide] | – | – | –
7.4 | CC(=O)N1CCC(C(=O)N(CCCN2[C@@H]3CC[C@H]2C[C@H](NS(=O)(=O)Cc2ccccc2)C3)c2ccc(C)c(Cl)c2)CC1 [Compound 9e, 1-acetyl-N-(3-chloro-4-methylphenyl)-N-(3-(3-exo-(phenylmethylsulfonylamido)-8-azabicyclo[3.2.1]oct-8-yl)propyl)-4-piperidinylcarboxamide] | – | – | –
2.53 | CC(=O)N1CCC(C(=O)N(CCCN2[C@@H]3CC[C@H]2C[C@H](NS(=O)(=O)c2cccs2)C3)c2ccc(C)c(Cl)c2)CC1 [Compound 9f, 1-acetyl-N-(3-chloro-4-methylphenyl)-N-(3-(3-exo-(thienyl-2-sulfonylamido)-8-azabicyclo[3.2.1]oct-8-yl)propyl)-4-piperidinylcarboxamide] | – | – | –
– | COc1ccc(NC(=O)NC2CC3CCC(C2)N3CCCN(C(=O)C2CCN(C(C)=O)CC2)c2ccc(C)c(Cl)c2)cc1 (stereo not drawn) [Compound 10a, 1-acetyl-N-(3-chloro-4-methylphenyl)-N-(3-(3-exo-(3-(4-methoxylphenyl)ureylene)-8-azabicyclo[3.2.1]oct-8-yl)propyl)-4-piperidinylcarboxamide] | – | – | inhibition against CCR5 (class symbol in IC50 column) (class by inhibition at 30 nM or 300 nM): ++ (the compound at 300 nM has an inhibition against CCR5 of more thant 50% at 300 nM)
28.7 | CC(=O)N1CCC(C(=O)N(CCCN2C3CCC2CC(NC(=O)Nc2ccc(Cl)c(C(F)(F)F)c2)C3)c2ccc(C)c(Cl)c2)CC1 (stereo not drawn) [Compound 10b, 1-acetyl-N-(3-(3-(3-(4-chloro-3-(trifluoromethyl)phenyl)ureylene)-8-azabicyclo[3.2.1]oct-8-yl)propyl)-N-(3-chloro-4-methylphenyl)-4-piperidinylcarboxamide] | – | – | –
– | CC(=O)N1CCC(C(=O)N(CCCN2C3CCC2CC(NC(=O)Nc2ccccc2)C3)c2ccc(C)c(Cl)c2)CC1 (stereo not drawn) [Compound 10c, 1-acetyl-N-(3-(3-(3-phenylureylene)-8-azabicyclo[3.2.1]oct-8-yl)propyl)-N-(3-chloro-4-methylphenyl)-4-piperidinylcarboxamide] | 33.5 | 41.9 | –
– | CC(=O)N1CCC(C(=O)N(CCCN2C3CCC2CC(n2c(C)nnc2C(C)C)C3)c2ccc(C)c(Cl)c2)CC1 (stereo not drawn) [Compound 11, 1-acetyl-N-(3-chloro-4-methylphenyl)-N-(3-(3-exo-(3-isopropyl-5-methyl-4-hydro-1,2,4-triazol-4-yl)-8-azabicyclo[3.2.1]oct-8-yl)propyl)-4-piperidinylcarboxamide] | 48.8 | 98.4 | –
– | Cc1ccc(S(=O)(=O)NC2CC3CCC(C2)N3CCCN(C(=O)C2CCCCC2)c2ccc(C)c(Cl)c2)cc1 (stereo not drawn) [Compound 15a, N-(3-chloro-4-methylphenyl)-N-(3-(3-exo-(4-tolylsulfonamido)-8-azabicyclo[3.2.1]oct-8-yl)propyl)cyclohexylcarboxamide] | 45.2 | 100 | –
2.06 | Cc1ccc(S(=O)(=O)N[C@@H]2C[C@H]3CC[C@@H](C2)N3CCCN(C(=O)C2CCN(S(C)(=O)=O)CC2)c2ccc(C)c(Cl)c2)cc1 [Compound 15b, N-(3-chloro-4-methylphenyl)-N-(3-(3-exo-(4-tolylsulfonamido)-8-azabicyclo[3.2.1]oct-8-yl)propyl)-1-(methylsulfonyl)-4-piperidinylcarboxamide] | – | – | –
